{
  "source": "ChEMBL document CHEMBL1132898",
  "about": "“COBRA-1, a rationally-designed epoxy-THF containing compound with potent tubulin depolymerizing activity as a novel anticancer agent” (2000)",
  "key": {"Homo sapiens": {"species_on_record": "Homo sapiens", "test": "Concentration for inhibition of proliferation of BT-20 by impairing the mitotic spindle assembly; Range 1-10 uM", "type": "functional"}, "BT-20": {"system": "BT-20", "test": "Concentration of compound that increased the level of c-jun mRNA expression in BT-20 breast cancer cells", "type": "functional, cell-based", "settings": "Homo sapiens"}, "NALM-6 [1]": {"system": "NALM-6", "test": "Compound (10 uM) was tested for its ability to kill clonogenic NALM-6 cells", "type": "functional, Homo sapiens"}, "NALM-6 [2]": {"system": "NALM-6", "test": "Compound (100 uM) was tested for its ability to kill clonogenic NALM-6 leukemia cells at 100 uM", "type": "functional, Homo sapiens"}, "NALM-6 [3]": {"system": "NALM-6", "test": "Cytotoxic activity (<10 uM) against clonogenic NALM-6 leukemia using standard in vitro clonogenic assay; No effect", "type": "functional, cell-based", "settings": "Homo sapiens"}, "PC-3 [4]": {"system": "PC-3", "test": "Compound (10 uM) was tested for its ability to kill clonogenic PC-3 cells", "type": "functional, Homo sapiens"}, "PC-3 [5]": {"system": "PC-3", "test": "Compound (100 uM) was tested for its ability to kill clonogenic PC-3 cells at 100 uM", "type": "functional, Homo sapiens"}, "PC-3 [6]": {"system": "PC-3", "test": "Cytotoxic activity (<10 uM) against PC-3 prostate cancer cells using standard in vitro clonogenic assay; No effect", "type": "functional, cell-based", "settings": "Homo sapiens"}, "U373 MG [7]": {"system": "U373 MG", "test": "Concentration of compound that increased the level of c-jun mRNA expression in U373 glioblastoma cells", "type": "functional, cell-based", "settings": "Homo sapiens; U-373MG ATCC"}, "[8]": {"molecular_target": "Tubulin alpha chain (Sus scrofa) (UniProt P02550)", "sequence (P02550 whole entry, looked up)": "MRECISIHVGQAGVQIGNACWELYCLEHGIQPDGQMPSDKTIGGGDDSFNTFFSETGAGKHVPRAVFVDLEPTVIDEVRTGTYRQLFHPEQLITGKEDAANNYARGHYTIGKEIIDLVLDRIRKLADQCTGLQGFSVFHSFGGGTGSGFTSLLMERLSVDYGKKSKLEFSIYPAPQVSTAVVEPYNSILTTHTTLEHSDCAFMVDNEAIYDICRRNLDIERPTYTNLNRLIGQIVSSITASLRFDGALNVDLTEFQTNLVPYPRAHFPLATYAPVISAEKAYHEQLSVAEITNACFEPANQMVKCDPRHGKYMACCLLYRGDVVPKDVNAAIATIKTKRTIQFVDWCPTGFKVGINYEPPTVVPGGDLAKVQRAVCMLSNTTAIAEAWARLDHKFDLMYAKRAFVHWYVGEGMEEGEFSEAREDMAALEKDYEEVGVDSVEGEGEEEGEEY", "test": "Compound was tested for tubulin polymerization in presence of GTP by using cell free tubulin turbidity assay; Active", "type": "functional"}, "U373 MG [9]": {"system": "U373 MG", "test": "Concentration for inhibition of proliferation of U373 by impairing the mitotic spindle assembly at a concentration; Range 1-10 uM", "type": "functional, cell-based", "settings": "Homo sapiens; U-373MG ATCC"}},
  "note": "Activity calls are given as the source filed them. The calls are words filed in the database; no cut-off is given here.",
  "data": [
    {"smiles": "C=CCC[C@H](O)[C@H]1CC[C@H]([C@H](O)CCCCCCCCCCCC)O1", "values": [
      {"measurement": "Concentration", "setting": "Homo sapiens", "value": 10, "unit": "µM"},
      {"measurement": "Concentration", "setting": "BT-20", "value": 250, "unit": "µM"},
      {"measurement": "Cell kill", "setting": "NALM-6 [1]", "value": 99, "unit": "%"},
      {"measurement": "Cell kill", "setting": "NALM-6 [2]", "value": ">99.9", "unit": "%"},
      {"measurement": "Concentration", "setting": "NALM-6 [3]", "value": "inactive"},
      {"measurement": "Cell kill", "setting": "PC-3 [4]", "value": 91, "unit": "%"},
      {"measurement": "Cell kill", "setting": "PC-3 [5]", "value": ">99.9", "unit": "%"},
      {"measurement": "Concentration", "setting": "PC-3 [6]", "value": "inactive"},
      {"measurement": "Concentration", "setting": "U373 MG [7]", "value": 250, "unit": "µM"},
      {"measurement": "inhibition", "setting": "[8]", "value": "Active"},
      {"measurement": "Concentration", "setting": "U373 MG [9]", "value": 10, "unit": "µM"}
    ]}
  ]
}
